Data reported in ChEMBL document CHEMBL1137979, “Nonpeptidic, noncovalent inhibitors of the cysteine protease cathepsin S” (J Med Chem, 2004).

Tested on: not listed separately
Assay: Inhibitory concentration against human Li processing
Assay type: functional

In the case of `N#Cc1ccccc1N1CCN(CC(Cn2nc(-c3ccc(I)cc3)c3c2CCN(C(N)=O)C3)OC(N)=O)CC1` (configuration not stated), the IC50 is reported as 880 nM.

Target: Cathepsin S (Homo sapiens, UniProt P25774)
Assay: Inhibitory concentration against human cysteine protease cathepsin S

Cathepsin S, sequence (P25774 whole entry): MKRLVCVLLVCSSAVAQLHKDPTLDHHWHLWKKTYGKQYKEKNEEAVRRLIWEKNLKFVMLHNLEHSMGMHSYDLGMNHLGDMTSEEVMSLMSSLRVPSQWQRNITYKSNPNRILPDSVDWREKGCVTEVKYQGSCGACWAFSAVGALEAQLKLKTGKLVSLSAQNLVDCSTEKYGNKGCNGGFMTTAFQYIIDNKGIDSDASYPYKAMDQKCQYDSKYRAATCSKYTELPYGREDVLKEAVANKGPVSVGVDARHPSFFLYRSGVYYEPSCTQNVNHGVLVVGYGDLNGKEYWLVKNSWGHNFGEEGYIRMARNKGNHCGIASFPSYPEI

Going from `N#Cc1ccccc1N1CCN(CC(Cn2nc(-c3ccc(I)cc3)c3c2CCN(C(N)=O)C3)OC(N)=O)CC1` (configuration not stated) to `Cc1ccccc1N1CCN(CC(O)Cn2nc(-c3ccc(I)cc3)c3c2CCN(C(N)=O)C3)CC1` (configuration not stated), the IC50 rises from 20 nM to 14000 nM (700-fold). The first is the more potent here.

`CC(=O)N1CCc2c(c(-c3ccc(Cl)cc3)nn2CC(O)CN2CCN(C(c3ccc(F)cc3)c3ccc(F)cc3)CC2)C1` (configuration not stated) and `CC(=O)N1CCc2c(c(-c3ccc(Cl)cc3)nn2CC(O)CN2CCN(c3ccccc3Cl)CC2)C1` (configuration not stated) are the same in IC50: 1000 nM for the first, 1000 nM for the second.

Compared with `COc1ccccc1N1CCN(CCCCn2nc(-c3ccc(Cl)cc3)c3c2CCN(C(C)=O)C3)CC1`, `COc1ccccc1N1CCN(CC(O)Cn2nc(-c3ccc(I)cc3)c3c2CCN(C(C)=O)C3)CC1` (configuration not stated) is 16-fold lower in IC50: 9500 nM for the first, 600 nM for the second.
